Measured values from patent publication US20240319171A1, “METHOD FOR SCREENING SUBSTANCE, SYSTEM FOR SCREENING SUBSTANCE, METHOD FOR PRODUCING A CLUMP FROM STEM CELLS, AND METHOD FOR PRODUCING DIFFERENTIATED CELLS” (priority 2023, published 2024).

What was measured:
[1] = test system: human subject 1-derived induced fibroblasts; assay: collagen production by induced fibroblasts after adding substance (subject 1); format: cell-based; conditions: FIG. 14A; for amount of the collagen produced: human subject 1-derived induced fibroblasts, compared with the control in which the addition was not carried out
Text: (§1) Skin cells were collected from a human subject 1 and a human subject 2, and iPS cells were induced from the skin cells from the respective subjects. Further, in the same manner as in Example 2, fibroblasts were induced from the human subject 1-derived iPS cells, and fibroblasts were induced from the human subject 2-derived iPS cells.

[2] = test system: human subject 2-derived induced fibroblasts; assay: collagen production by induced fibroblasts after adding substance (subject 2); format: cell-based; conditions: compared with the control in which the addition was not carried out, FIG. 14B
Text: as §1

[3] = test system: human subject 1-derived induced fibroblasts; format: cell-based
[4] = test system: human subject 2-derived induced fibroblasts; conditions: among phenoxyethanol, paraben, benzalkonium chloride, sodium salicylate, FIG. 15B
Experimental: In addition, phenoxyethanol, paraben, benzalkonium chloride, and sodium salicylate, which are respectively antiseptic agents, were prepared.

Row | Compound | amount of the collagen produced [1] | effectiveness in increasing the production amount of collagen, compared among added substances ([1]; induced fibroblasts derived from human subject 1, among vitamin C, retinol, iPS cell culture medium supernatant) | amount of the collagen produced [2] | survival rate of cells [3] | survival rate of cells [4]
1 | O=C1O[C@H]([C@@H](O)CO)C(O)=C1O [vitamin C] | increased | most effective | increased |  | 
2 | OCCOc1ccccc1 [phenoxyethanol] |  |  |  | highest | 
3 | O=C([O-])c1ccccc1O.[Na+] [sodium salicylate] |  |  |  |  | highest
4 | CC1=C(/C=C/C(C)=C/C=C/C(C)=C/CO)C(C)(C)CCC1 [retinol] | increased |  | increased |  | 
